In US11702422B2, “Imidazopyridazines as modulators of IL-17” (Janssen Pharmaceutica NV, priority 2020, dated 2023):

Columns and labels:
[1] = biological target: IL-17A(FLAG-Tagged): IL-17RA(His-Tagged) (Homo sapiens, UniProt Q16552, K93Q); assay: IL-17A(FLAG-Tagged): IL-17RA(His-Tagged) Binding Disruption Eu-HTRF Assay; details: IL-17A/IL-17RA binding disruption, simple average if tested more than once
Text: IL-17A(FLAG-Tagged): IL-17RA(His-Tagged) Binding Disruption Eu-HTRF Assay
An antibody directed against the FLAG tag of IL-17A (SEQ ID NO:1) is labeled with the HTRF donor chromophore (Europium-cryptate). IL-17A is present as a dimer that is “locked into” this quaternary structure due to the formation of loop-spanning […] disulfide bridges. The construct of IL-17RA used in the assay excludes the […] portion of the receptor and is fused to a C-terminal 10×His tag (SEQ ID NO:2). An antibody directed against the His tag of the IL-17RA chimera is labeled with the HTRF acceptor chromophore (“D2”). The fluorescence-resonance energy transfer (FRET) depends on the vicinity of the donor chromophore to the acceptor, and interruption of the binding between the IL-17A and IL-17RA causes the reduction/loss of FRET. Therefore, this assay allows to evaluate the compound effect on the binding IL-17A and IL-17RA by monitoring the fluorescence intensity of donor vs acceptor. The assay is run as described below.
40 nl of 2-fold serial diluted compound solution for total 22 dilution points is added into each well of a 1536-well, white, low-volume, non-binding plate (Greiner #782904), then 2 μl of FLAG tagged IL-17A at 2× final concentration (2.5 nM) in solution of PBS+0.01% Triton-X100 is added to each well. The assay plate is briefly centrifuged then incubated for 1 h at rt. A mixed solution is prepared containing 2×5 nM 10HIS×IL-17RA, 2×2.5 nM Eu-anti-FLAG (CISBIO), 2×5 nM D2-anti-HIS (CISBIO) in PBS+0.01% Triton-X100+200 mM Potassium Fluoride (Sigma 60238) and 2 μl of mix is added to each well of the assay plate. The plate is briefly centrifuged then incubated for 2 h at rt. The HTRF intensities at the wavelength of donor (620 nm) and acceptor (665 nm) are measured using BMG Pherastar. The ratio between intensities at two wavelengths is calculated and plotted against the compound concentration and the data is fitted to a one-site competition model to yield IC50 of the compound.

[2] = tested on: IL-17A-induced G-CSF production in human normal keratinocyte (NHK); assay: NHK Assay: IL-17A-induced G-CSF production in human normal keratinocytes; type: cell-based; details: Homo sapiens, Keratinocyte, 24 h, adult normal human keratinocytes, IL-17A 5 ng/mL, simple average if tested more than once
Procedure: IL-17A acts directly on keratinocytes through binding to dimeric receptor IL-17RA/RC and drives the production of a number of inflammatory mediators known to be elevated in psoriasis lesional tissue. IL-17A small molecule inhibitors that block the IL-17A to interact with IL-17R would inhibit the IL-17A signaling in its targeted cells such as keratinocytes. The compound functional activity is evaluated for its impact on IL-17A-induced G-CSF production in human normal keratinocyte (NHK).
Adult normal human keratinocytes are cultured in keratinocyte growth medium (Lonza) in a flask till reaching ˜ 90% confluence, then cells are transferred to a 384-well plate at density of 3000-4000 cell/well. Recombinant human IL-17A (Gibco PHC9174) is pre-incubated with titrated compound or DMSO for 1 h at rt then added to the cell culture plate. The final concentration of IL-17A is 5 ng/mL and DMSO is 0.2%, in the culture containing 5% FBS. Cells are cultured/treated for 24 h at 37° C. Supernatants are collected and G-CSF production is measured through HTRF technology using Human G-CSF Kit (CisBio). G-CSF concentration was extrapolated from the standard curve and IC50 is determined using GraphPad Prism. Cell viability is also evaluated using CellTiter-Glo kit (Promega) and effect of compound on cell viability is compared to DMSO control.

UniProt Q16552, sequence (Q16552 with tags, fused parts or gaps K93Q): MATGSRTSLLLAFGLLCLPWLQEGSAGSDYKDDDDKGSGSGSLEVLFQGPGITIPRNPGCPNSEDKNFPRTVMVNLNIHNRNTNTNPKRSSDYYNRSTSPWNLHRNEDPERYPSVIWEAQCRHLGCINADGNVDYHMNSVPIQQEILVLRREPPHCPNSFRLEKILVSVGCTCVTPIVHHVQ

IC50 [1] [µM] | SMILES | IC50 [2] [µM]
4.4 | Cc1nonc1C(=O)N[C@H](c1cn2ncc([C@H](NC(=O)[C@H]3CC[C@@H]3F)C3CC3)cc2n1)C1CCC(F)(F)CC1 (relative stereo) [Example 334, N—((S)-(7-((R)-Cyclopropyl((1R*,2S*)-2-fluorocyclobutane-1-carboxamido)methyl)imidazo[1,2-b]pyridazin-2-yl)(4,4-difluorocyclohexyl)methyl)-4-methyl-1,2,5-oxadiazole-3-carboxamide] | > 20
7.5 | Cc1nonc1C(=O)N[C@H](c1cn2ncc([C@H](NC(=O)[C@@H]3CC[C@H]3F)C3CC3)cc2n1)C1CCC(F)(F)CC1 (relative stereo) [Example 335, N—((S)-(7-((R)-Cyclopropyl((1S*,2R*)-2-fluorocyclobutane-1-carboxamido)methyl)imidazo[1,2-b]pyridazin-2-yl)(4,4-difluorocyclohexyl)methyl)-4-methyl-1,2,5-oxadiazole-3-carboxamide] | > 20
5 | Cc1nonc1C(=O)N[C@H](c1cn2ncc([C@H](NC(=O)[C@H]3CC[C@H]3F)C3CC3)cc2n1)C1CCC(F)(F)CC1 (relative stereo) [Example 336, N—((S)-(7-((R)-Cyclopropyl((1R*,2R*)-2-fluorocyclobutane-1-carboxamido)methyl)imidazo[1,2-b]pyridazin-2-yl)(4,4-difluorocyclohexyl)methyl)-4-methyl-1,2,5-oxadiazole-3-carboxamide] | > 20
3.5 | Cc1nonc1C(=O)N[C@H](c1cn2ncc([C@H](NC(=O)[C@@H]3CC[C@@H]3F)C3CC3)cc2n1)C1CCC(F)(F)CC1 (relative stereo) [Example 337, N—((S)-(7-((R)-Cyclopropyl((1S*,2S*)-2-fluorocyclobutane-1-carboxamido)methyl)imidazo[1,2-b]pyridazin-2-yl)(4,4-difluorocyclohexyl)methyl)-4-methyl-1,2,5-oxadiazole-3-carboxamide] | > 20
8.6 | Cc1nonc1C(=O)N[C@H](c1cn2ncc([C@H](NC(=O)[C@@]34C[C@@H](F)[C@@H]3C4)C3CC3)cc2n1)C1CCC(F)(F)CC1 (relative stereo) [Example 340, N—((S)-(7-((R)-Cyclopropyl((1S*,3R*,4R*)-3-fluorobicyclo[2.1.0]pentane-1-carboxamido)methyl)imidazo[1,2-b]pyridazin-2-yl)(4,4-difluorocyclohexyl)methyl)-4-methyl-1,2,5-oxadiazole-3-carboxamide] | > 20
4.8 | Cc1nonc1C(=O)N[C@H](c1cn2ncc([C@H](NC(=O)[C@@]34C[C@@H]3[C@@H](F)C4)C3CC3)cc2n1)C1CCC(F)(F)CC1 (relative stereo) [Example 341, N—((S)-(7-((R)-Cyclopropyl((1R*,3S*,4S*)-3-fluorobicyclo[2.1.0]pentane-1-carboxamido)methyl)imidazo[1,2-b]pyridazin-2-yl)(4,4-difluorocyclohexyl)methyl)-4-methyl-1,2,5-oxadiazole-3-carboxamide] | > 20
0.12 | Cc1nonc1C(=O)N[C@H](c1cn2ncc([C@H](NC(=O)[C@H](F)[C@@H](C)C(F)(F)F)C3CC3)cc2n1)C1CCC(F)(F)CC1 (relative stereo) [Example 352, N—((S)-(7-((R)-Cyclopropyl((2R*,3R*)-2,4,4,4-tetrafluoro-3-methylbutanamido)methyl)imidazo[1,2-b]pyridazin-2-yl)(4,4-difluorocyclohexyl)methyl)-4-methyl-1,2,5-oxadiazole-3-carboxamide] | 0.19
0.63 | Cc1nonc1C(=O)N[C@H](c1cn2ncc([C@H](NC(=O)[C@H](F)[C@H](C)C(F)(F)F)C3CC3)cc2n1)C1CCC(F)(F)CC1 (relative stereo) [Example 353, N—((S)-(7-((R)-Cyclopropyl((2R*,3S*)-2,4,4,4-tetrafluoro-3-methylbutanamido)methyl)imidazo[1,2-b]pyridazin-2-yl)(4,4-difluorocyclohexyl)methyl)-4-methyl-1,2,5-oxadiazole-3-carboxamide] | 0.97
0.73 | Cc1nonc1C(=O)N[C@H](c1cn2ncc([C@H](NC(=O)[C@@H](F)[C@@H](C)C(F)(F)F)C3CC3)cc2n1)C1CCC(F)(F)CC1 (relative stereo) [Example 354, N—((S)-(7-((R)-Cyclopropyl((2S*,3R*)-2,4,4,4-tetrafluoro-3-methylbutanamido)methyl)imidazo[1,2-b]pyridazin-2-yl)(4,4-difluorocyclohexyl)methyl)-4-methyl-1,2,5-oxadiazole-3-carboxamide] | 2.7
0.52 | Cc1nonc1C(=O)N[C@H](c1cn2ncc([C@H](NC(=O)[C@@H]3CNC[C@H]3C(F)(F)F)C3CC3)cc2n1)C1CCC(F)(F)CC1 (relative stereo) [Example 356, N—((S)-(7-((R)-Cyclopropyl((trans-3S*,4S*)-4-(trifluoromethyl)pyrrolidine-3-carboxamido)methyl)imidazo[1,2-b]pyridazin-2-yl)(4,4-difluorocyclohexyl)methyl)-4-methyl-1,2,5-oxadiazole-3-carboxamide] | 7.8
0.45 | O=C(CCC(F)(F)F)N[C@@H](c1cnn2cc([C@@H](NC(=O)[C@@H]3C[C@@H]3C(F)F)C3CCC(F)(F)CC3)nc2c1)C1CC1 (relative stereo) [Example 358, (1R*,2S*)—N—((S)-(7-((R*)-Cyclopropyl(4,4,4-trifluorobutanamido)methyl)imidazo[1,2-b]pyridazin-2-yl)(4,4-difluorocyclohexyl)methyl)-2-(difluoromethyl)cyclopropane-1-carboxamide] | 2.1
1.1 | O=C(CCC(F)(F)F)N[C@@H](c1cnn2cc([C@@H](NC(=O)[C@H]3C[C@H]3C(F)F)C3CCC(F)(F)CC3)nc2c1)C1CC1 (relative stereo) [Example 359, (1S*,2R*)—N—((S)-(7-((R*)-Cyclopropyl(4,4,4-trifluorobutanamido)methyl)imidazo[1,2-b]pyridazin-2-yl)(4,4-difluorocyclohexyl)methyl)-2-(difluoromethyl)cyclopropane-1-carboxamide] | 10
4.2 | O=C(CCC(F)(F)F)N[C@@H](c1cnn2cc([C@@H](NC(=O)[C@@H]3C[C@H]3CF)C3CCC(F)(F)CC3)nc2c1)C1CC1 (relative stereo) [Example 362, (1R*,2R*)—N—((S)-(7-((R*)-Cyclopropyl(4,4,4-trifluorobutanamido)methyl)imidazo[1,2-b]pyridazin-2-yl)(4,4-difluorocyclohexyl)methyl)-2-(fluoromethyl)cyclopropane-1-carboxamide] | > 20
0.64 | O=C(CCC(F)(F)F)N[C@@H](c1cnn2cc([C@@H](NC(=O)[C@H]3C[C@@H]3CF)C3CCC(F)(F)CC3)nc2c1)C1CC1 (relative stereo) [Example 363, (1S*,2S*)—N—((S)-(7-((R*)-Cyclopropyl(4,4,4-trifluorobutanamido)methyl)imidazo[1,2-b]pyridazin-2-yl)(4,4-difluorocyclohexyl)methyl)-2-(fluoromethyl)cyclopropane-1-carboxamide] | 1.1
2.1 | O=C(CCC(F)(F)F)N[C@@H](c1cnn2cc([C@@H](NC(=O)[C@H]3C[C@H]3CF)C3CCC(F)(F)CC3)nc2c1)C1CC1 (relative stereo) [Example 364, (1S*,2R*)—N—((S)-(7-((R*)-Cyclopropyl(4,4,4-trifluorobutanamido)methyl)imidazo[1,2-b]pyridazin-2-yl)(4,4-difluorocyclohexyl)methyl)-2-(fluoromethyl)cyclopropane-1-carboxamide] | > 20
